Patent US20090209507A1, “15-O-Desmethylmacbecin Derivatives and Their Use in the Treatment of Cancer or B-Cell Malignancies” (priority 2006, published 2009)

What was measured:
[1] = system: Reverse transcriptase; settings: cited from earlier work
[2] = biological target: terminal deoxynucleotidyl transferase (Homo sapiens, UniProt P04053); settings: cited from earlier work
[3] = system: CNXF 498NL; experiment: monolayer proliferation assay (modified propidium iodide assay), CNXF 498NL; format: cell-based, human; settings: CNXF 498NL (CNS), 4 days continuous exposure
Protocol: (§1) In vitro evaluation of compounds for anticancer activity in a panel of human tumour cell lines in a monolayer proliferation assay was carried out at the Oncotest Testing Facility, Institute for Experimental Oncology, Oncotest GmbH, Freiburg.
(§2) The Oncotest cell lines were established from human tumor xenografts as described by Roth et al., (1999). The origin of the donor xenografts was described by Fiebig et al., (1999). Other cell lines are either obtained from the NCI (DU145, MCF-7) or purchased from DSMZ, Braunschweig, Germany.
(§3) All cell lines, unless otherwise specified, were grown at 37° C. in a humidified atmosphere (95% air, 5% CO2) in a ‘ready-mix’ medium containing RPMI 1640 medium, 10% fetal calf serum, and 0.1 mg/mL gentamicin (PAA, Cölbe, Germany).
(§4) A modified propidium iodide assay was used to assess the effects of the test compound(s) on the growth of the human tumour cell lines (Dengler et al., (1995)).
(§5) Briefly, cells were harvested from exponential phase cultures by trypsinization, counted and plated in 96 well flat-bottomed microtitre plates at a cell density dependent on the cell line (5-10.000 viable cells/well). […] After thawing the plates, fluorescence was measured using the Cytofluor 4000 microplate reader (excitation 530 nm, emission 620 nm), giving a direct relationship to the total number of viable cells.
(§6) Growth inhibition is expressed as treated/control×100 (% T/C). […]

[4] = system: CXF HT29; experiment: monolayer proliferation assay (modified propidium iodide assay), CXF HT29; format: cell-based, human; settings: CXF HT29 (Colon), 4 days continuous exposure
Protocol: as §1, §2, §3, §4, §5, §6

[5] = system: LXF 1121L; experiment: monolayer proliferation assay (modified propidium iodide assay), LXF 1121L; format: cell-based, human; settings: LXF 1121L (Lung, large cell ca), 4 days continuous exposure
Protocol: as §1, §2, §3, §4, §5, §6

[6] = system: MCF-7; experiment: monolayer proliferation assay (modified propidium iodide assay), MCF-7; format: cell-based, human; settings: MCF-7 (Breast), 4 days continuous exposure
Protocol: as §1, §2, §3, §4, §5, §6

[7] = system: MEXF 394NL; experiment: monolayer proliferation assay (modified propidium iodide assay), MEXF 394NL; format: cell-based, human; settings: MEXF 394NL (Melanoma), 4 days continuous exposure
Protocol: as §1, §2, §3, §4, §5, §6

[8] = system: DU145; experiment: monolayer proliferation assay (modified propidium iodide assay), DU145; format: cell-based, human; settings: DU145 (Prostate - PTEN positive), 4 days continuous exposure
Protocol: as §1, §2, §3, §4, §5, §6

Sequence of terminal deoxynucleotidyl transferase (P04053 whole entry, species assumed): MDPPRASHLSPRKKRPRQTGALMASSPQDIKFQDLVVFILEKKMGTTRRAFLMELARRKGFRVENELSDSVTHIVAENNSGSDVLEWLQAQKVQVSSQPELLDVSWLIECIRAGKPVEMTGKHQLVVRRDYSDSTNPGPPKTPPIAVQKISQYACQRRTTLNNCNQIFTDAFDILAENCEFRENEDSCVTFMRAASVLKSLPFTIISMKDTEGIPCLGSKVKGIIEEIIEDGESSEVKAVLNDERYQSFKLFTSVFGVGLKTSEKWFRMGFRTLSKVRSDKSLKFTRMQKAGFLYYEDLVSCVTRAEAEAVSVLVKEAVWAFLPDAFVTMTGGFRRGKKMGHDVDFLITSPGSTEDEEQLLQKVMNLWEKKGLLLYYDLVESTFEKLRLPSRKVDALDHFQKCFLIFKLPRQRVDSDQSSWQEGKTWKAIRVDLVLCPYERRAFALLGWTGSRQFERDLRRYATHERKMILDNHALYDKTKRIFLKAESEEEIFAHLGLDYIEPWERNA

Q: With `CO[C@H]1[C@@H](OC)C[C@H](C)[C@@H](OC)C2=CC(=O)C=C(NC(=O)/C(C)=C/C=C\[C@H](C)[C@@H](OC(N)=O)/C(C)=C/[C@@H]1C)C2=O` [Macbecin, macbecin] as the compound, how does the “Reverse transcriptase activity inhibition” value [1] read?
A: not inhibited

Q: What about the “terminal deoxynucleotidyl transferase activity inhibition” value [2] of the same compound?
A: not inhibited

Q: For `CO[C@H]1[C@@H](OC)C[C@H](C)[C@@H](O)C2=CC(=O)C=C(NC(=O)/C(C)=C/C=C\[C@H](C)[C@@H](OC(N)=O)/C(C)=C/[C@@H]1C)C2=O` [Compound 14, 15-O-desmethylmacbecin], which “Test/Control (%) at drug concentration” value ([3]; 1 μg/mL) is on record?
A: 49.3%

Q: And the “Test/Control (%) at drug concentration” value ([3]; 10 μg/mL)?
A: 4.7%

Q: What about the “Test/Control (%) at drug concentration” value ([4]; 1 μg/mL) of the same compound?
A: 58.3%

Q: What about the “Test/Control (%) at drug concentration” value ([4]; 10 μg/mL) of the same compound?
A: 7.7%

Q: And the “Test/Control (%) at drug concentration” value ([5]; 1 μg/mL)?
A: 63%

Q: What about the “Test/Control (%) at drug concentration” value ([5]; 10 μg/mL) of the same compound?
A: 6%

Q: And the “Test/Control (%) at drug concentration” value ([6]; 1 μg/mL)?
A: 65.3%

Q: And the “Test/Control (%) at drug concentration” value ([6]; 10 μg/mL)?
A: 15.3%

Q: What about the “Test/Control (%) at drug concentration” value ([7]; 1 μg/mL) of the same compound?
A: 17%

Q: And the “Test/Control (%) at drug concentration” value ([7]; 10 μg/mL)?
A: 2.3%

Q: What about the “Test/Control (%) at drug concentration” value ([8]; 1 μg/mL) of the same compound?
A: 49.7%

Q: What about the “Test/Control (%) at drug concentration” value ([8]; 10 μg/mL) of the same compound?
A: 6%
